The subject of test [1] is IL-2. Description: qPCR of IL-2 expression in stimulated Jurkat cells. It is filed as cell-based, human. The following applies: PHA+PMA stimulation. Here is the method: (§1) Evaluation of PD-1 and IL-2 expression: The effect of NU7441 on the expression of PD-1, a protein with immunosuppressant function, and IL-2 was examined in Jurkat cells following stimulation with PHA+PMA and treatment with the inhibitor NU7441. qPCR analysis was performed using primers specific for PD1 and IL-2 sequences.
Background: In qPCR the cycle at which signal appears reflects the starting amount.

In test [2] the test system is PD-1. Kind of test: qPCR of PD-1 expression in stimulated Jurkat cells. The class given is cell-based, human. Conditions: PHA+PMA stimulation. Here is the method:
as §1

Consider one compound from patent US20240245696A1, “INHIBITORS OF DNA PK AND USES THEREOF” (BioVentures, LLC, priority 2017, published 2024).

Each structure is given as a SMILES string.

Turning to `C=CC[C@@H]1/C=C(\C)C[C@H](C)C[C@H](OC)[C@H]2O[C@@](O)(C(=O)C(=O)N3CCCC[C@H]3C(=O)O[C@H](/C(C)=C/[C@@H]3CC[C@@H](O)[C@H](OC)C3)[C@H](C)[C@@H](O)CC1=O)[C@H](C)C[C@@H]2OC` [FK506, Tacrolimus], the IL-2 expression entry in test [1] is “reduced”. In test [2], the “expression level of PD-1” value is given as “significantly reduce expression”.
